Results published in PMC2810561 (Journal of the American Chemical Society, 2009).

Tested on: T84 human intestinal cells
Format: cell-based

cholera toxin
secretory response (short-circuit current) to cholera toxin: a pronounced secretory response was observed
